US7435721B2, “Transport peptides such as C-terminal Erns peptide and analogues thereof” (Pepscan Systems B.V., priority 2000, dated 2008)
Converted amounts (≈) assume the structure as drawn. Read-outs that look alike come from different tables or passages of the source. Residues, ends and D or L forms follow the SMILES beside them. No end group written: not given here. *: point of attachment. Biotin = O=C1N[C@H]2[C@H](CS[C@H]2CCCCC(=O)*)N1

Assays:
Format in all cases: cell-based
guinea pig erythrocytes = assay: Hemolytic assay, guinea pig erythrocytes; conditions: 1% v/v, one hour at 37° C.
Method: Hemolytic assay. Hemolytic activity of various peptide concentrations was determined by incubation with human, guinea pig or sheep erythrocyte suspensions (final erythrocyte concentration, 1% v/v) for one hour at 37° C. After cooling and centrifugation, the optical density of the supernatants were measured at 540 nm. Peptide concentrations causing 50% hemolysis (EC50) were derived from the dose-response curves.

[1] = test system: Escherichia coli ATCC 25922; assay: Antimicrobial assay (MIC), E. coli; conditions: for MIC (minimal inhibitory concentration needed to inhibit bacterial growth): overnight at 37° C.
Method: Antimicrobial assay. Two bacterial strains (Escherichia coli ATCC 25922 and Enterococcus faecalis ATCC 29212) were inoculated on heart infusion agar with 5% sheep blood and incubated aerobically overnight at 37° C. From the pure cultures, suspensions were made in saline to a density of 0.5 McFarland. These suspensions were diluted ten-fold in Mueller Hinton II broth, resulting in a final inoculum of approximately 10^7 cfu/ml.
Standard 96-well microtiter trays were filled with 100 ill of two-fold dilutions of peptide in physiologic salt solution in each well, resulting in the following concentration range: 4000, 2000, 1000, 500, 250, 125, 62.25, 31.63, 15.82, 7.96 and 0 μg/ml. The trays in column 12 were filled with 200 μl MH II broth (negative control).
Columns 1-11 of the microtiter trays were filled with 100 μl of the final inoculum of the bacterial suspensions, thus diluting the concentrations of the peptide two fold, resulting in the following peptide concentration range in the wells: 2000, 1000, 500, 250, 125, 62.25, 31.63, 15.82, 7.96, 3.98 and 0 μg/ml. In rows B, C and D, 100 μl of the final inoculum of E. coli and, in rows E, F and G, 100 μl of the final inoculum of E. faecalis was pipetted. The final bacterial concentration was approximately 5×10^5 cfu/well. All trays were sealed and incubated overnight at 37° C. After incubation, the microtiter trays were inspected visually for bacterial growth and the absorbance of the cultures at 630 nm (A630) was determined with an ELISA-reader. […] The experiment was performed independently in triplicate. The test was repeated again in triplicate after two days with the final peptide concentration range in the wells: 5000, 2500, 1250, 625, 312.5, 156.25, 78.12, 39.06, 19.58, 9.79, 4.88, 2.44 and 1.22 μg/ml.

[2] = test system: live cells in suspension or subconfluent monolayers

Compound: CC[C@H](C)[C@H](NC(=O)[C@H](CCCNC(=N)N)NC(=O)[C@H](CC(C)C)NC(=O)[C@H](CCC(N)=O)NC(=O)[C@H](CCCNC(=N)N)NC(=O)CNC(=O)[C@H](CC(C)C)NC(=O)[C@H](Cc1c[nH]c2ccccc12)NC(=O)[C@H](CO)NC(=O)[C@@H](NC(=O)[C@@H](NC(=O)[C@H](CCCNC(=N)N)NC(=O)[C@H](C)NC(=O)[C@H](C)NC(=O)CNC(=O)[C@H](CCC(N)=O)NC(=O)[C@H](CCCNC(=N)N)NC(=O)[C@H](C)NC(=O)[C@H](CC(N)=O)NC(=O)[C@H](CCC(=O)O)NC(=O)CCCC[C@@H]1SC[C@@H]2NC(=O)N[C@@H]21)C(C)C)[C@@H](C)O)C(=O)N[C@@H](C)C(=O)NCC(=O)N[C@@H](CCCCN)C(=O)N[C@@H](CCCNC(=N)N)C(=O)N[C@@H](CC(C)C)C(=O)N[C@@H](CCC(=O)O)C(=O)NCC(=O)N[C@@H](CCCNC(=N)N)C(=O)N[C@@H](CO)C(=O)N[C@@H](CCCCN)C(N)=O [191-220]
- Hemolysis (peptide concentration causing 50% hemolysis) (guinea pig erythrocytes): 0.31 mg/mL
- MIC (minimal inhibitory concentration needed to inhibit bacterial growth) [1]: 47 µg/mL (≈ 13.1 µM)

Compound: Biotin-KLIKGRTPIKFGKADCDRPPKHSQNGK-NH2
- Concentration (translocation activity), mapping of restrictocin L3 loop [2]: 0.3 µM

Compound: Biotin-KLIKGRTPIKFGKADCDRPPKHSGK-NH2
- Concentration (translocation activity), mapping of restrictocin L3 loop [2]: 0.3 µM

Compound: Biotin-KRPAAIKKAGQAKKKK-NH2 [Bipartite]
- Concentration (translocation activity of transport peptides) [2]: 0.1 µM

Compound: Biotin-KGRTPIKFGKADCDRPPKHSQNGMGK-NH2
- Concentration (translocation activity), mapping of restrictocin L3 loop [2]: 3.0 µM

Compound: Biotin-KRIPNKKPGKKTTTKPTKKPTIK-NH2 [MDP-08]
- Concentration (translocation activity of transport peptides) [2]: 0.3 µM

Compound: Biotin-GRQLRRAGRRLRRRSR-NH2 [MDM-27]
- Concentration (translocation activity), optimization of E^rns peptide [2]: 0.1 µM

Compound: Biotin-RRVTSWLGRQLRIAGKRLEGRSK-NH2 [MDL-8]
- Concentration (translocation activity), optimization of E^rns peptide [2]: 1.0 µM

Compound: CC[C@H](C)[C@H](NC(=O)[C@H](CC(C)C)NC(=O)[C@H](CCCCN)NC(=O)CNC(=O)[C@H](CC(N)=O)NC(=O)CNC(=O)CCCC[C@@H]1SC[C@@H]2NC(=O)N[C@@H]21)C(=O)N[C@@H](CCCCN)C(=O)NCC(=O)N[C@@H](CCCNC(=N)N)C(=O)N[C@H](C(=O)N1CCC[C@H]1C(=O)N[C@H](C(=O)N[C@@H](CCCCN)C(=O)N[C@@H](Cc1ccccc1)C(=O)NCC(=O)N[C@@H](CCCCN)C(=O)N[C@@H](C)C(=O)N[C@@H](CC(=O)O)C(=O)N[C@@H](CS)C(=O)N[C@@H](CC(=O)O)C(=O)N[C@@H](CCCNC(=N)N)C(=O)N1CCC[C@H]1C(=O)N1CCC[C@H]1C(=O)N[C@@H](CCCCN)C(=O)N[C@@H](Cc1c[nH]cn1)C(=O)N[C@@H](CO)C(=O)N[C@@H](CCC(N)=O)C(=O)N[C@@H](CC(N)=O)C(=O)NCC(=O)N[C@@H](CCSC)C(=O)NCC(=O)N[C@@H](CCCCN)C(N)=O)[C@@H](C)CC)[C@@H](C)O [L3 loop 59-88] (Biotin-GNGKLIKGRTPIKFGKADCDRPPKHSQNGMGK-NH2)
- Translocation activity (in words) [2]: showed translocation activity
- Concentration (translocation activity), mapping of restrictocin L3 loop ([2]; Table 10): 1.0 µM
- Antibacterial activity (in words) [1]: no antibacterial activity
- MIC (minimal inhibitory concentration needed to inhibit bacterial growth) [1]: >500 µg/mL

Compound: Biotin-QTRRRERRAEKQAQW-NH2 [Bacteriophage lambda N peptide]
- Concentration (translocation activity of transport peptides) [2]: 1.0 µM

Compound: Biotin-KCPSRRPKR-NH2 [Alpha virus E3]
- Concentration (translocation activity of transport peptides) [2]: 3.0 µM

Compound: Biotin-KKPGKKTTTKPTKK-NH2 [MDS-23]
- Concentration (translocation activity of transport peptides) [2]: 0.3 µM

Compound: Biotin-PKKKRKV-NH2
- Concentration (translocation activity of transport peptides) [2]: 0.1 µM

Compound: Biotin-KRIPNKKPGKK-NH2 [MDS-34]
- Concentration (translocation activity of transport peptides) [2]: 0.03 µM

Compound: Biotin-RPRGTRGKGRRIRR-NH2 [HIV-1 tat/tar]
- Concentration (translocation activity of transport peptides) [2]: 0.3 µM

Compound: Biotin-KKPTIKTTKK-NH2 [MDS-37]
- Concentration (translocation activity of transport peptides) [2]: 0.3 µM

Compound: Biotin-KRIPNKKPGKKT-NH2 [MDP-32]
- Concentration (translocation activity of transport peptides) [2]: 0.03 µM

Compound: Biotin-RQLRIAGRRLRGRSR-NH2 [MDM-28]
- Concentration (translocation activity), optimization of E^rns peptide [2]: 0.1 µM

Compound: Biotin-KRIPNKKPGKKTTTKPTKKPTIKTTKKDLK-NH2 [MDN-13]
- Concentration (translocation activity of transport peptides) [2]: 1.0 µM

Compound: Biotin-KLIKGRTPIKFGKADCDRPPKHSQNGMGK-NH2
- Concentration (translocation activity), mapping of restrictocin L3 loop [2]: 0.3 µM

Compound: Biotin-KRIPNKKPKK [MDS-36]
- Concentration (translocation activity of transport peptides) [2]: 0.03 µM

Compound: Biotin-GRQLRRAGRRLRGRSR-NH2 [MDM-25]
- Concentration (translocation activity), optimization of E^rns peptide [2]: 0.1 µM

Compound: Biotin-GRQLRIAGKRLRGRSK-NH2 [MDR-25]
- Concentration (translocation activity), optimization of E^rns peptide [2]: 0.3 µM

Compound: Bioton-KRIPNKKPGKKTTTKPTKKPTIKTTKK-NH2 [MDP-04]
- Concentration (translocation activity of transport peptides) ([2]; Table 11): 0.3 µM

Compound: Biotin-NRTRRNRRRVR-NH2 [Flockhouse virus peptide]
- Concentration (translocation activity of transport peptides) [2]: 0.03 µM

Compound: Biotin-RRRERRAEK-NH2
- Concentration (translocation activity of transport peptides) [2]: 1.0 µM

Compound: Biotin-DTRQARRNRRRRWRERQRAAAAR-NH2 [HIV-1 Rev]
- Concentration (translocation activity of transport peptides) [2]: 0.1 µM

Compound: Biotin-GNGKLIKGRTPIKFGKADCDRPPKHSQNGM-NH2
- Concentration (translocation activity), mapping of restrictocin L3 loop [2]: 3.0 µM

Compound: MAGAININ (GIGKFLHSAGKFGKAFVGEIMKS; also: biotinylated (site not given here)) [reference compound]
- Translocation activity (in words) [2]: did not

Compound: Biotin-RVRSWLGRQLRIAGKRLEGRSK-NH2 [MDL-9]
- Concentration (translocation activity), optimization of E^rns peptide [2]: 1.0 µM

Compound: Biotin-RAGLQFPVGRVHRLLRK-NH2 [Antibacterial peptide Buforin, reference compound]
- Concentration (translocation activity of transport peptides) [2]: 3.0 µM

Compound: Biotin-GRQLRIAGRRLRRRSR-NH2 [MDM-26]
- Concentration (translocation activity), optimization of E^rns peptide [2]: 0.1 µM

Compound: Biotin-DRRRRGSRPSGAERRRRRAAAA-NH2 [RSG-1.2]
- Concentration (translocation activity of transport peptides) [2]: 0.1 µM

Compound: Biotin-KKPGKKTTTKPTKKPTIKTTKK-NH2 [MDS-09]
- Concentration (translocation activity of transport peptides) [2]: 0.3 µM

Compound: Biotin-KRIPNKKPGKKTTTKPTKK-NH2 [MDP-19]
- Concentration (translocation activity of transport peptides) [2]: 0.3 µM

Compound: Biotin-KSICKTIPSNKPKKK-NH2 [MDP-21]
- Concentration (translocation activity of transport peptides) [2]: 1.0 µM

Compound: Biotin-KTIPSNKPKKK-NH2 [MDS-35]
- Concentration (translocation activity of transport peptides) [2]: 0.1 µM

Compound: Biotin-KLIKGRTPIKFGKARCRRPPKHSGK-NH2
- Concentration (translocation activity), mapping of restrictocin L3 loop [2]: 0.3 µM

Compound: Biotin-KRIPNKKPGKKTTTKPTKKPTIKTTKKDLKPQTTKPK-NH2 [MDN-12]
- Concentration (translocation activity of transport peptides) [2]: 1.0 µM

Compound: Rhodamine-GRQLRIAGRRLRGRSR-NH2 [A931]
- Concentration (translocation activity), optimization of E^rns peptide ([2]; Table 9, lower concentration = higher translocation activity): 3.0 µM

Compound: Biotin-TRRSKRRSHRKF-NH2 [Herpes virus 8 k8 protein (res 124-135)]
- Concentration (translocation activity of transport peptides) [2]: 0.1 µM
